Results: patent US5942494A, “Stimulation of gene expression and synthesis of heat shock protein 72/73 (HSP 70)” (The Trustees of Columbia University in the City of New York, priority 1996, dated 1999)
Square brackets hold non-standard residues; d marks the D form. Peptide text beside a SMILES is read from it. Nle = CCCC[C@H](N)C(=O)O

Experiments:
[1] = system: apoB; conditions: Sakata, et al., 1993, unpublished data; cited from earlier work
[2] = molecular target: cathepsin B (Homo sapiens, UniProt P07858); conditions: Rock, et al., 1994; cited from earlier work
[3] = system: Hsp60; assay: Immunoprecipitation of Hsp60 from radiolabeled HepG2 cells; assay type: cell-based, human; conditions: HepG2, ALLN 4 hours
Protocol: FIGS. 7A-7B: Effects of ALLN on the biosynthesis of other members of Hsp family and related proteins. HepG2 cells were pre-treated and radiolabeled with or without ALLN for 4 hours as described in FIG. 1. Cell lysates were used for SDS-PAGE (A), or for immunoprecipitation with anti-Hsp25, -Hsp27, -Hsp60, -Hsp70, -Hsp86, -Hsp90, -Hsp104, -Bip, or -albumin antibodies respectively (1 μg/ml) (B). Because the anti-Hsp25, -Hsp27, -Hsp60 and Hsp90 antibodies are from a rat source, rabbit anti-rat IgG antibody was added after the first incubation, and the incubation was extended for another 1 hour at 4° C. before collection with protein A-Sepharose.Immunoprecipitates were loaded for SDS-PAGE and aliquoted for scintillation counting and plotting. Each value was presented as mean ±S.D. from three individual culture dishes.
HepG2 cells were preincubated for 4 hours in serum-free MEM and then radiolabeled with ^3 H-Leucine (150 μCi/ml) in a serum-free, leucine-free medium. […] Cell lysates containing equal amounts of trichloroacetic acid (TCA)-insoluble radioactivity were used for immunoprecipitations by incubating with individual monoclonal antibody (1 μg/ml) for 2.5 hours at 4° C. […]

[4] = system: Hsp70; assay: Hsp70 level in human microvascular endothelial cell line; assay type: cell-based; conditions: ALLN 40 μg/ml, 4 hours, 30 min. labeling
Protocol: ALLN induces Hsp70 protein levels in HepG2 cells in a dose-dependent manner. The effect of ALLN on the protein levels of Hsp70 was analysed by denaturing immunoprecipitation of extracts of [^3 H]-leucine radiolabeled HepG2 cells which had been pre-treated with ALLN for 4 hours at different doses. Denaturing immunoprecipitation was chosen because Hsp70 is a major cytosolic chaperone protein and it is co-immunoprecipitated with a number of other proteins under non-denaturingconditions (Beckmann, et al., 1990; Zhou, et al., 1995). […] This may be due to a low constitutive level of expression of Hsp73 (Hsp70) in HepG2 cells similar to that reported for other cell types in the absence of stress (Welch, et al., 1984). Treatment with ALLN was associated with a marked increase in Hsp70 level, which was further confirmed as Hsp72 (the inducible form) by Western blot (data not shown).

[5] = system: 3-hydroxy-3-methylglutaryl-coenzyme A (HMG-CoA) reductase; conditions: Inoue, et al., 1991; cited from earlier work
[6] = system: human microvascular endothelial cell line; assay: TCA-cpm measurement in human microvascular endothelial cell line; assay type: cell-based; conditions: ALLN 40 μg/ml, 4 hours, 30 min. labeling

In the case of `CCCC[C@@H](C=O)NC(=O)[C@H](CC(C)C)NC(=O)[C@H](CC(C)C)NC(C)=O` [ALLN, N-acetyl-leucyl-leucyl-norleucinal] (Ac-Leu-Leu-[Nle]-aldehyde), the “Protection of apoB” value [1] is given as “protected”, the “Activity against cathepsin B” value [2] is given as “significant activities” and the “Effect on Hsp60” value [3] is given as “no effects”. The “Increment of Hsp70 level” value [4] was 35 fold, the “Protection of HMG-CoA reductase” value [5] was “protected” and the TCA-cpm measurement [6] was “no change”.
